Reference: patent publication US8445536B2, “Arginine-containing compositions and methods for increasing blood flow using same” (Ajinomoto Co., Inc., priority 2005, dated 2013)
Where two headings read alike, the source gives them in different places.

Legend:
male SD rats [1] = experiment: Test Example 4: blood pressure when administering arginine and glutamine to rats; settings: 50 mg arginine/kg over 30 min; 20 to 30 min after injection; average of 3 rats
male SD rats [2] = experiment: Test Example 1: blood flow at the skin of the lower thighs, laser Doppler blood-flowmeter; settings: for Maximum increasing rate of blood flow (Before administration: 100%): skin of lower thighs
male SD rats [3] = experiment: Test Example 2: variation of blood pressure; settings: 50 or 150 mg of arginine per 1 kg body weight, iv over 30 min
[4] = Test Example 3: concentration of free arginine in the blood plasma on intravenous arginine; type: in vivo, rats; settings: for concentration at 10 min / concentration at 20 min / concentration at 30 min / concentration at 40 min: Sprague-Dawley, rat, plasma, iv
Source text: (c) Rats were anesthetized by pentobarbital. […] (b) Administration: […]

male SD rats [5] = experiment: Test Example 2: blood flow in the capillaries of various organs, microsphere method
Description: (b) Operation: Catheters were inserted into the carotid artery, jugular vein, and femoral artery of rats under anesthesia.
After taking enough time from the second administration of the microsphere, the rats were euthanasized, and the muscles, digestive tracts, liver, kidneys, spleen, heart, brain, adipose tissues, and abdominal skin were extracted. Then, the microspheres contained in each organ were collected and the rate of change in blood flow was calculated for each organ from the amount of the microspheres.

human beings = human beings of average weight 78 kg, cited from earlier work
male SD rats [6] = experiment: Test Example 1: blood pressure when administering arginine to rats (arterial catheter); settings: 500 mg of arginine per 1 kg body weight, iv over 30 min
male SD rats [7] = experiment: Test Example 5: amounts of Evans' Blue delivered to various organs after arginine
Description: (b) Operation: A catheter was inserted into the jugular vein of rats under anesthesia. Then, a blood sample was collected from the catheter.
After sufficient time, the rats were euthanasized, and the muscles, digestive tracts, liver, kidneys, spleen, heart, brain, adipose tissues, and abdominal skin were extracted. Then, Evans' Blue was released by immersing each organ in a formalin solution, and the amount of Evans' Blue in each organ was calculated from the absorbance obtained by the spectrophotometer.

[8] = 50 mg of arginine per 1 kg body weight
[9] = 150 mg of arginine per 1 kg body weight

Question: For N=C(N)NCCC[C@H](N)C(=O)O [arginine], which “Maximum variation of blood pressure” value (male SD rats [1]) is on record?
Answer: +11.4 mmHg

Question: What about the “Maximum increasing rate of blood flow (Before administration: 100%)” value (male SD rats [2]; 50 mg arginine/kg iv over 30 min, 20 to 30 min after injection) of the same compound?
Answer: +43.9%

Question: What about the “Maximum increasing rate of blood flow (Before administration: 100%)” value (male SD rats [2]; 150 mg arginine/kg iv over 30 min, 20 to 30 min after injection) of the same compound?
Answer: +29.3%

Question: And the “Maximum increasing rate of blood flow (Before administration: 100%)” value (male SD rats [2]; 500 mg arginine/kg iv over 30 min, 50 to 60 min after injection)?
Answer: +85.0%

Question: What about the “amount of blood flowing to the skin of the lower thighs” value (male SD rats [2]; all rats given 50 mg or more of arginine per 1 kg body weight) of the same compound?
Answer: increased

Question: What about the “variation of blood pressure” value (male SD rats [3]) of the same compound?
Answer: ≤ 10 mmHg

Question: What about the “rise of the concentration of free arginine in the blood plasma at maximum” value [4, 8] of the same compound?
Answer: 46.1 micrograms per 1 mL

Question: What about the “rise of the concentration of free arginine in the blood plasma at maximum” value [4, 9] of the same compound?
Answer: 177.5 micrograms per 1 mL

Question: And the concentration at 10 min ([4]; 50 mg/kg)?
Answer: 43.6 µg/mL

Question: What about the concentration at 20 min ([4]; 50 mg/kg) of the same compound?
Answer: 46.1 µg/mL

Question: What about the concentration at 30 min ([4]; 50 mg/kg) of the same compound?
Answer: 38.8 µg/mL

Question: And the concentration at 40 min ([4]; 50 mg/kg)?
Answer: 15700 ng/mL

Question: And the concentration at 10 min ([4]; 150 mg/kg)?
Answer: 156 µg/mL

Question: What about the concentration at 20 min ([4]; 150 mg/kg) of the same compound?
Answer: 115 µg/mL

Question: And the concentration at 30 min ([4]; 150 mg/kg)?
Answer: 178 µg/mL

Question: What about the concentration at 40 min ([4]; 150 mg/kg) of the same compound?
Answer: 77200 ng/mL

Question: What about the “blood flow in the capillaries of the muscles and the brain” value (male SD rats [5]; [8]) of the same compound?
Answer: significantly increased

Question: And the “blood flow in the capillaries, all organs measured” value (male SD rats [5]; [9])?
Answer: increased for all organs measured

Question: What about the “Changes in blood flow after the administration of arginine (before administration 100%)” value (male SD rats [5]; Abdominal skin, 50 mg/kg of body weight) of the same compound?
Answer: 117%

Question: What about the “Changes in blood flow after the administration of arginine (before administration 100%)” value (male SD rats [5]; Abdominal skin, 150 mg/kg of body weight) of the same compound?
Answer: 134%

Question: And the “Changes in blood flow after the administration of arginine (before administration 100%)” value (male SD rats [5]; Adipose tissues, 50 mg/kg of body weight)?
Answer: 99%

Question: And the “Changes in blood flow after the administration of arginine (before administration 100%)” value (male SD rats [5]; Adipose tissues, 150 mg/kg of body weight)?
Answer: 116%

Question: And the “Changes in blood flow after the administration of arginine (before administration 100%)” value (male SD rats [5]; Back skin, 50 mg/kg of body weight)?
Answer: 107%

Question: What about the “Changes in blood flow after the administration of arginine (before administration 100%)” value (male SD rats [5]; Back skin, 150 mg/kg of body weight) of the same compound?
Answer: 118%

Question: What about the “Changes in blood flow after the administration of arginine (before administration 100%)” value (male SD rats [5]; Brain, 50 mg/kg of body weight) of the same compound?
Answer: 126%

Question: And the “Changes in blood flow after the administration of arginine (before administration 100%)” value (male SD rats [5]; Brain, 150 mg/kg of body weight)?
Answer: 137%

Question: And the “Changes in blood flow after the administration of arginine (before administration 100%)” value (male SD rats [5]; Duodenum, 50 mg/kg of body weight)?
Answer: 123%

Question: What about the “Changes in blood flow after the administration of arginine (before administration 100%)” value (male SD rats [5]; Duodenum, 150 mg/kg of body weight) of the same compound?
Answer: 142%

Question: And the “Changes in blood flow after the administration of arginine (before administration 100%)” value (male SD rats [5]; Heart, 50 mg/kg of body weight)?
Answer: 126%

Question: What about the “Changes in blood flow after the administration of arginine (before administration 100%)” value (male SD rats [5]; Heart, 150 mg/kg of body weight) of the same compound?
Answer: 140%

Question: And the “Changes in blood flow after the administration of arginine (before administration 100%)” value (male SD rats [5]; Kidneys, 50 mg/kg of body weight)?
Answer: 86%

Question: What about the “Changes in blood flow after the administration of arginine (before administration 100%)” value (male SD rats [5]; Kidneys, 150 mg/kg of body weight) of the same compound?
Answer: 91%

Question: What about the “Changes in blood flow after the administration of arginine (before administration 100%)” value (male SD rats [5]; Liver, 50 mg/kg of body weight) of the same compound?
Answer: 92%

Question: And the “Changes in blood flow after the administration of arginine (before administration 100%)” value (male SD rats [5]; Liver, 150 mg/kg of body weight)?
Answer: 101%

Question: What about the “Changes in blood flow after the administration of arginine (before administration 100%)” value (male SD rats [5]; Muscles, 50 mg/kg of body weight) of the same compound?
Answer: 164%

Question: What about the “Changes in blood flow after the administration of arginine (before administration 100%)” value (male SD rats [5]; Muscles, 150 mg/kg of body weight) of the same compound?
Answer: 157%

Question: What about the “Changes in blood flow after the administration of arginine (before administration 100%)” value (male SD rats [5]; Spleen, 50 mg/kg of body weight) of the same compound?
Answer: 104%

Question: And the “Changes in blood flow after the administration of arginine (before administration 100%)” value (male SD rats [5]; Spleen, 150 mg/kg of body weight)?
Answer: 115%

Question: And the vascular resistance (human beings; 6 g arginine parenterally)?
Answer: did not cause either effect

Question: And the vascular resistance (human beings; 30 g arginine parenterally)?
Answer: lowered

Question: What about the “death due to rapid reduction of blood pressure” value (male SD rats [6]) of the same compound?
Answer: Two out of three rats died

Question: And the “delivered amounts of Evans' Blue to the organs (tendency)” value (male SD rats [7]; 50 or 150 mg of arginine per 1 kg, muscles, digestive tract, liver, kidneys, spleen, brain, adipose tissues, skin)?
Answer: increased

Question: What about the “Changes in the amounts of Evans' Blue after administering arginine (before administration 100%)” value (male SD rats [7]; Abdominal skin, 150 mg/kg of BW) of the same compound?
Answer: 207%

Question: What about the “Changes in the amounts of Evans' Blue after administering arginine (before administration 100%)” value (male SD rats [7]; Adipose tissues, 50 mg/kg of BW) of the same compound?
Answer: 430%

Question: What about the “Changes in the amounts of Evans' Blue after administering arginine (before administration 100%)” value (male SD rats [7]; Adipose tissues, 150 mg/kg of BW) of the same compound?
Answer: 160%

Question: And the “Changes in the amounts of Evans' Blue after administering arginine (before administration 100%)” value (male SD rats [7]; Back skin, 50 mg/kg of BW)?
Answer: 315%

Question: And the “Changes in the amounts of Evans' Blue after administering arginine (before administration 100%)” value (male SD rats [7]; Back skin, 150 mg/kg of BW)?
Answer: 331%

Question: And the “Changes in the amounts of Evans' Blue after administering arginine (before administration 100%)” value (male SD rats [7]; Brain, 50 mg/kg of BW)?
Answer: 169%

Question: What about the “Changes in the amounts of Evans' Blue after administering arginine (before administration 100%)” value (male SD rats [7]; Duodenum, 50 mg/kg of BW) of the same compound?
Answer: 143%

Question: And the “Changes in the amounts of Evans' Blue after administering arginine (before administration 100%)” value (male SD rats [7]; Duodenum, 150 mg/kg of BW)?
Answer: 85%

Question: What about the “Changes in the amounts of Evans' Blue after administering arginine (before administration 100%)” value (male SD rats [7]; Gastrocnemius muscle, 50 mg/kg of BW) of the same compound?
Answer: 219%

Question: What about the “Changes in the amounts of Evans' Blue after administering arginine (before administration 100%)” value (male SD rats [7]; Gastrocnemius muscle, 150 mg/kg of BW) of the same compound?
Answer: 154%

Question: What about the “Changes in the amounts of Evans' Blue after administering arginine (before administration 100%)” value (male SD rats [7]; Heart, 50 mg/kg of BW) of the same compound?
Answer: 87%

Question: What about the “Changes in the amounts of Evans' Blue after administering arginine (before administration 100%)” value (male SD rats [7]; Heart, 150 mg/kg of BW) of the same compound?
Answer: 85%

Question: And the “Changes in the amounts of Evans' Blue after administering arginine (before administration 100%)” value (male SD rats [7]; Kidneys, 50 mg/kg of BW)?
Answer: 161%

Question: And the “Changes in the amounts of Evans' Blue after administering arginine (before administration 100%)” value (male SD rats [7]; Liver, 50 mg/kg of BW)?
Answer: 181%

Question: And the “Changes in the amounts of Evans' Blue after administering arginine (before administration 100%)” value (male SD rats [7]; Liver, 150 mg/kg of BW)?
Answer: 173%

Question: What about the “Changes in the amounts of Evans' Blue after administering arginine (before administration 100%)” value (male SD rats [7]; Spleen, 50 mg/kg of BW) of the same compound?
Answer: 101%

Question: What about the “Changes in the amounts of Evans' Blue after administering arginine (before administration 100%)” value (male SD rats [7]; Spleen, 150 mg/kg of BW) of the same compound?
Answer: 92%
